Results from ChEMBL document CHEMBL1159171, “Symmetry-based HIV protease inhibitors containing a hydroxy bis-urea isostere” (Bioorg Med Chem Lett, 1994).

biological target: Human immunodeficiency virus type 1 protease (Human immunodeficiency virus 1) (UniProt Q72874); assay: In vitro inhibitory activity against HIV-1 protease at a concentration of 10 uM

| inhibition | Structure (SMILES) |
| --- | --- |
| 16% | CON[C@@H](C(=O)NC(=O)N(Cc1ccccc1)CC(O)CN(Cc1ccccc1)C(=O)NC(=O)[C@H](NOC)C(C)C)C(C)C (single isomer, unassigned) |
| 50% | CC(C)(C)NC(=O)N(Cc1ccccc1)CC(O)CN(Cc1ccccc1)C(=O)NC(C)(C)C |
| 78% | CC(C)(C)NC(=O)N(Cc1ccccc1)C[C@H](O)[C@@H](O)CN(Cc1ccccc1)C(=O)NC(C)(C)C |
| 28% | CC(C)(C)OC(=O)NC(=O)N(Cc1ccccc1)CC(O)CN(Cc1ccccc1)C(=O)NC(=O)OC(C)(C)C |
| 36% | CON[C@H](C(=O)NC(=O)N(Cc1ccccc1)CC(O)CN(Cc1ccccc1)C(=O)NC(=O)[C@@H](NOC)C(C)C)C(C)C |
| 67% | CC(C)(C)NC(=O)N(Cc1cccc(O)c1)CC(O)CN(Cc1cccc(O)c1)C(=O)NC(C)(C)C |
| 38% | CCCNC(=O)N(Cc1ccccc1)CC(O)CN(Cc1ccccc1)C(=O)NCCC |
| 17.5% | CC(C)(C)N(Cc1ccccc1)C(=O)NCC(O)CNC(=O)N(Cc1ccccc1)C(C)(C)C |

Continued, compound first:

| Structure (SMILES) | inhibition |
| --- | --- |
| CC(C)[C@H](NC(=O)OCc1ccccc1)C(=O)N[C@@H](Cc1ccccc1)C(O)[C@H](Cc1ccccc1)NC(=O)[C@@H](NC(=O)OCc1ccccc1)C(C)C | 3% |
| CC(C)(C)NC(=O)NCC(O)CNC(=O)NC(C)(C)C | 8% |
| CC(C)(C)NC(=O)N(Cc1ccccc1O)CC(O)CN(Cc1ccccc1O)C(=O)NC(C)(C)C | 11% |
| O=C(NCc1ccccc1)N(Cc1ccccc1)CC(O)CN(Cc1ccccc1)C(=O)NCc1ccccc1 | 19% |
| CC(C)(C)NC(=O)N(Cc1cccc(O)c1O)CC(O)CN(Cc1cccc(O)c1O)C(=O)NC(C)(C)C | 67% |
| CC(C)CN(CC(O)CN(CC(C)C)C(=O)NC(C)(C)C)C(=O)NC(C)(C)C | 25% |
| O=C(Nc1ccccc1)N(Cc1ccccc1)CC(O)CN(Cc1ccccc1)C(=O)Nc1ccccc1 | 16% |
